Strand notation (5' to 3'): a small letter for the sugar, then the base; units joined by * are phosphorothioate-linked, units joined directly phosphodiester-linked; [ ] holds rarer units or linkages, { } end groups; capitals alone tell only the bases. e = 2'-O-(2-methoxyethyl) (MOE); [5mC] = 5-methylcytosine; d = 2'-deoxy (DNA)
System: human Factor 7 mRNA
Experiment: Antisense inhibition of human Factor 7 mRNA in HepB3 cells, 50 nM antisense oligonucleotide, lipofectin
Assay type: cell-based
Details: for % Inhibition of human Factor 7 mRNA levels: gapmers targeted to nucleobases 4868 to 4899 of SEQ ID NO: 1, Table 8; for % Inhibition: Table 13 (microwalk), 50 nM, lipofectin, approximately 24 hours
Procedure, shortened: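 Readout is percent reduction of Factor 7 message compared with untreated cells, after correction for total RNA content quantified by RIBOGREEN®. Cultures were seeded at 4,000 cells per well and treated for about 24 hours before RNA extraction.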

[1] = oligonucleotides targeted to nucleobases 11830 to 11869 of SEQ ID NO: 1 (Table 9)
[2] = oligonucleotides targeted to nucleobases 13760 to 13789 of SEQ ID NO: 1 (Table 10)

Substance: 422219 (antisense e[5mC]*e[5mC]*eG*dA*dG*dT*dT*d[5mC]*dT*dG*d[5mC]*dA*dG*dG*dA*dG*d[5mC]*eG*eG*e[5mC]) [compound 422219]
- % Inhibition of human Factor 7 mRNA levels: 65%

Substance: 422220 (antisense e[5mC]*e[5mC]*e[5mC]*dG*dA*dG*dT*dT*d[5mC]*dT*dG*d[5mC]*dA*dG*dG*dA*dG*e[5mC]*eG*eG) [compound 422220]
- % Inhibition of human Factor 7 mRNA levels: 59%

Substance: 422221 (antisense eG*e[5mC]*e[5mC]*d[5mC]*dG*dA*dG*dT*dT*d[5mC]*dT*dG*d[5mC]*dA*dG*dG*dA*eG*e[5mC]*eG) [compound 422221]
- % Inhibition of human Factor 7 mRNA levels: 59%

Substance: 422222 (antisense eA*eG*e[5mC]*d[5mC]*d[5mC]*dG*dA*dG*dT*dT*d[5mC]*dT*dG*d[5mC]*dA*dG*dG*eA*eG*e[5mC]) [compound 422222]
- % Inhibition of human Factor 7 mRNA levels: 55%

Substance: 422223 (antisense eG*eA*eG*d[5mC]*d[5mC]*d[5mC]*dG*dA*dG*dT*dT*d[5mC]*dT*dG*d[5mC]*dA*dG*eG*eA*eG) [compound 422223]
- % Inhibition of human Factor 7 mRNA levels: 48%

Substance: 422224 (antisense eG*eG*eA*dG*d[5mC]*d[5mC]*d[5mC]*dG*dA*dG*dT*dT*d[5mC]*dT*dG*d[5mC]*dA*eG*eG*eA) [compound 422224]
- % Inhibition of human Factor 7 mRNA levels: 62%

Substance: 422225 (antisense eA*eG*eG*dA*dG*d[5mC]*d[5mC]*d[5mC]*dG*dA*dG*dT*dT*d[5mC]*dT*dG*d[5mC]*eA*eG*eG) [compound 422225]
- % Inhibition of human Factor 7 mRNA levels: 56%

Substance: 422226 (antisense e[5mC]*eA*dT*dG*dG*dT*dG*dA*dT*dG*d[5mC]*dT*dT*d[5mC]*dT*eG*eA*eA*eT*eT) [compound 422226]
- % Inhibition: 41%

Substance: 422227 (antisense eG*e[5mC]*dA*dT*dG*dG*dT*dG*dA*dT*dG*d[5mC]*dT*dT*d[5mC]*eT*eG*eA*eA*eT) [compound 422227]
- % Inhibition: 67%

Substance: 422230 (antisense e[5mC]*eA*dT*dG*d[5mC]*dA*dT*dG*dG*dT*dG*dA*dT*dG*d[5mC]*eT*eT*e[5mC]*eT*eG) [compound 422230]
- % Inhibition: 65%

Substance: 422231 (antisense eT*e[5mC]*dA*dG*dG*dG*d[5mC]*dT*dG*dG*dT*dT*dT*dT*dG*eG*eA*eG*eG*eA) [compound 422231]
- % Inhibition (human Factor 7 mRNA levels) [1]: 22%

Substance: 422232 (antisense eG*eT*d[5mC]*dA*dG*dG*dG*d[5mC]*dT*dG*dG*dT*dT*dT*dT*eG*eG*eA*eG*eG) [compound 422232]
- % Inhibition (human Factor 7 mRNA levels) [1]: 41%

Substance: 422233 (antisense eG*eG*dT*d[5mC]*dA*dG*dG*dG*d[5mC]*dT*dG*dG*dT*dT*dT*eT*eG*eG*eA*eG) [compound 422233]
- % Inhibition (human Factor 7 mRNA levels) [1]: 46%

Substance: 422234 (antisense eT*eG*dG*dT*d[5mC]*dA*dG*dG*dG*d[5mC]*dT*dG*dG*dT*dT*eT*eT*eG*eG*eA) [compound 422234]
- % Inhibition (human Factor 7 mRNA levels) [1]: 62%

Substance: 422235 (antisense eA*eT*dG*dG*dT*d[5mC]*dA*dG*dG*dG*d[5mC]*dT*dG*dG*dT*eT*eT*eT*eG*eG) [compound 422235]
- % Inhibition (human Factor 7 mRNA levels) [1]: 50%

Substance: 422236 (antisense eA*eA*dT*dG*dG*dT*d[5mC]*dA*dG*dG*dG*d[5mC]*dT*dG*dG*eT*eT*eT*eT*eG) [compound 422236]
- % Inhibition (human Factor 7 mRNA levels) [1]: 44%

Substance: 422237 (antisense e[5mC]*eA*dA*dT*dG*dG*dT*d[5mC]*dA*dG*dG*dG*d[5mC]*dT*dG*eG*eT*eT*eT*eT) [compound 422237]
- % Inhibition (human Factor 7 mRNA levels) [1]: 50%

Substance: 422238 (antisense eA*e[5mC]*dA*dA*dT*dG*dG*dT*d[5mC]*dA*dG*dG*dG*d[5mC]*dT*eG*eG*eT*eT*eT) [compound 422238]
- % Inhibition (human Factor 7 mRNA levels) [1]: 64%

Substance: 422239 (antisense eG*eA*d[5mC]*dA*dA*dT*dG*dG*dT*d[5mC]*dA*dG*dG*dG*d[5mC]*eT*eG*eG*eT*eT) [compound 422239]
- % Inhibition (human Factor 7 mRNA levels) [1]: 67%

Substance: 422240 (antisense eA*eG*dA*d[5mC]*dA*dA*dT*dG*dG*dT*d[5mC]*dA*dG*dG*dG*e[5mC]*eT*eG*eG*eT) [compound 422240]
- % Inhibition (human Factor 7 mRNA levels) [1]: 66%

Substance: 422241 (antisense eG*eA*dG*dA*d[5mC]*dA*dA*dT*dG*dG*dT*d[5mC]*dA*dG*dG*eG*e[5mC]*eT*eG*eG) [compound 422241]
- % Inhibition (human Factor 7 mRNA levels) [1]: 61%

Substance: 422242 (antisense eG*eG*dA*dG*dA*d[5mC]*dA*dA*dT*dG*dG*dT*d[5mC]*dA*dG*eG*eG*e[5mC]*eT*eG) [compound 422242]
- % Inhibition (human Factor 7 mRNA levels) [1]: 64%

Substance: 422243 (antisense eA*eG*dG*dA*dG*dA*d[5mC]*dA*dA*dT*dG*dG*dT*d[5mC]*dA*eG*eG*eG*e[5mC]*eT) [compound 422243]
- % Inhibition (human Factor 7 mRNA levels) [1]: 62%

Substance: 422244 (antisense eG*eA*dG*dG*dA*dG*dA*d[5mC]*dA*dA*dT*dG*dG*dT*d[5mC]*eA*eG*eG*eG*e[5mC]) [compound 422244]
- % Inhibition (human Factor 7 mRNA levels) [1]: 55%

Substance: 422245 (antisense eT*eG*dA*dG*dG*dA*dG*dA*d[5mC]*dA*dA*dT*dG*dG*dT*e[5mC]*eA*eG*eG*eG) [compound 422245]
- % Inhibition (human Factor 7 mRNA levels) [1]: 24%

Substance: 422246 (antisense e[5mC]*eT*dG*dA*dG*dG*dA*dG*dA*d[5mC]*dA*dA*dT*dG*dG*eT*e[5mC]*eA*eG*eG) [compound 422246]
- % Inhibition (human Factor 7 mRNA levels) [1]: 46%

Substance: 422247 (antisense eG*e[5mC]*dT*dG*dA*dG*dG*dA*dG*dA*d[5mC]*dA*dA*dT*dG*eG*eT*e[5mC]*eA*eG) [compound 422247]
- % Inhibition (human Factor 7 mRNA levels) [1]: 36%

Substance: 422248 (antisense eG*eG*d[5mC]*dT*dG*dA*dG*dG*dA*dG*dA*d[5mC]*dA*dA*dT*eG*eG*eT*e[5mC]*eA) [compound 422248]
- % Inhibition (human Factor 7 mRNA levels) [1]: 60%

Substance: 422249 (antisense eT*eG*dG*d[5mC]*dT*dG*dA*dG*dG*dA*dG*dA*d[5mC]*dA*dA*eT*eG*eG*eT*e[5mC]) [compound 422249]
- % Inhibition (human Factor 7 mRNA levels) [1]: 52%

Substance: 422250 (antisense e[5mC]*eT*dG*dG*d[5mC]*dT*dG*dA*dG*dG*dA*dG*dA*d[5mC]*dA*eA*eT*eG*eG*eT) [compound 422250]
- % Inhibition (human Factor 7 mRNA levels) [1]: 54%

Substance: 422251 (antisense eG*e[5mC]*dT*dG*dG*d[5mC]*dT*dG*dA*dG*dG*dA*dG*dA*d[5mC]*eA*eA*eT*eG*eG) [compound 422251]
- % Inhibition (human Factor 7 mRNA levels) [1]: 36%

Substance: 422253 (antisense e[5mC]*e[5mC]*dG*d[5mC]*d[5mC]*dG*dG*d[5mC]*dT*d[5mC]*dT*dG*d[5mC]*dT*d[5mC]*eA*eT*e[5mC]*e[5mC]*e[5mC]) [compound 422253]
- % Inhibition (human Factor 7 mRNA levels) [2]: 61%

Substance: 422254 (antisense e[5mC]*e[5mC]*d[5mC]*dG*d[5mC]*d[5mC]*dG*dG*d[5mC]*dT*d[5mC]*dT*dG*d[5mC]*dT*e[5mC]*eA*eT*e[5mC]*e[5mC]) [compound 422254]
- % Inhibition (human Factor 7 mRNA levels) [2]: 42%

Substance: 422255 (antisense eA*e[5mC]*d[5mC]*d[5mC]*dG*d[5mC]*d[5mC]*dG*dG*d[5mC]*dT*d[5mC]*dT*dG*d[5mC]*eT*e[5mC]*eA*eT*e[5mC]) [compound 422255]
- % Inhibition (human Factor 7 mRNA levels) [2]: 30%

Substance: 422256 (antisense e[5mC]*eA*d[5mC]*d[5mC]*d[5mC]*dG*d[5mC]*d[5mC]*dG*dG*d[5mC]*dT*d[5mC]*dT*dG*e[5mC]*eT*e[5mC]*eA*eT) [compound 422256]
- % Inhibition (human Factor 7 mRNA levels) [2]: 29%
